The nature of series [1]: Solubility of peptide compounds in buffer formulations (Table 5). Type of series: physicochemical. To be noted: target 1 mg/ml. The method, then: Prior to the solubility measurement of a peptide batch, its purity was determined through UHPLC/MS method A.
For solubility testing the target concentration was 1 mg pure compound/ml. Therefore, solutions from solid samples were prepared in a buffer system at a concentration of 1 mg/mL compound. The solid samples were obtained by drying down aliquots of a freshly prepared dimethyl sulfoxide stock solution using a THERMO SPEEDVAC vacuum centrifuge. The dry down time was 3 hours.
The following buffer systems were applied: • Solubility buffer system A) 50 mM HCl pH 1.2 • Solubility buffer system B) 50 mM phosphate buffer pH 6.5 • Solubility buffer system C) 50 mM phosphate buffer pH 7.4 • UHPLC-UV was performed using analytical method A after 2 hours of gentle agitation from the filtered (0.45 μm filter plates) solutions, which were obtained by 10 mins of centrifugation forced filtration at 1500 RCF (relative centrifugal acceleration).
The solubility was determined by the comparison of the UV peak area of 2 μL-injections of a buffered sample diluted 1:10 with a standard curve of a dimethyl sulfoxide reference sample of known concentration. The different extinction coefficients were taken into account for the calculation.

Series [2] is described as follows: Protease stability in simulated intestinal fluids (FaSSIF) (Table 7). Type of series: in vitro ADME. The note with it: fassif with pancreatin, 37° C.; for remaining at 1 h, 1 µM: 60 min, read-out: Remaining percentage of peptide compound, FaSSIF 60 (min); for remaining at 2 h, 1 µM: 120 min, read-out: Remaining percentage of peptide compound, FaSSIF 120 (min); for remaining at 4 h, 1 µM: 240 min, read-out: Remaining percentage of peptide compound, FaSSIF 240 (min). On the procedure:
(§1) Studies were carried out in simulated intestinal fluid (SIF) and simulated gastric fluid (SGF) to evaluate gastric stability of the peptide compounds disclosed herein.
Similarly, the term “Pancreatin-SIF” refers to a solution of simulated intestinal fluid containing pancreatin whereas “SIF-media” refers to a solution of simulated intestinal fluid without pancreatin. Pancreatin-SIF was prepared by dissolving 1 mg Pancreatin (MP Biomedicals) in 10 mL SIF media concentrate (PROSENSE).
(§2) Peptide compounds were first dissolved at 1 mM stock concentration in 0.01 HCl (+/−10% of DMSO) and were than diluted further with water to a stock concentration of 20 μM. Final peptide concentration in the incubation was 1 μM.
(§3) To 76 μL of the Pepsin-SGF buffer, 4 μL of the 20 μM peptide stock solution was added and incubated at 37° C. At each timepoint (0, 60, 120 and 240 minutes) the reaction was quenched with addition of 80 μL Ethanol (0.1% HCOOH). The samples were centrifuged for 20 minutes and an aliquot of the supernatant 100 μL were transferred to a LoBind-MTP plate and analyzed by LCMS/MS. The peak area response was calculated at each time point for each test compound. As internal reference, the peak area response of the same test compound at T0 was calculated. The percentage remaining at each timepoint was calculated based on the peak area response ratio of the test compound at T0. Time 0 was set to 100%, and all later timepoints were calculated relative to time 0.

The nature of series [3]: Protease stability in simulated gastric fluids (FaSSGF) (Table 7). The note with it: fassgf with pepsin, 60 min, 37° C., read-out: Remaining percentage of peptide compound, FaSSGF 60 (min). Type of series: in vitro ADME. On the procedure: as §1
For clarification, the term “Pepsin-SGF” refers to a solution of simulated gastric fluid containing pepsin whereas “SGF media” refers to a solution of simulated gastric fluid without pepsin. Pepsin-SGF was prepared by dissolving 320 mg Pepsin (Merck Millipore) in 100 mL SGF media concentrate (PROSENSE).
as §2
as §3, with “(0,1%” for “(0.1%”
as §3

Series [4] deals with IL-23 induced STAT3 signaling (IL-23 receptor) in HEK-Blue IL-23 cells. As to the kind of experiment: Inhibition of IL-23 induced STAT3 signaling in HEK-Blue IL-23 cells, SEAP reporter (Table 9). Type of series: cell-based. The note with it: human IL23 0.25 ng/ml, overnight, read-out: Inhibition of IL-23 induced pSTAT3 (IC50 nM). From the text: HEK-Blue™ IL-23 cells (INVIVOGEN) are designed for the detection of bioactive human (hIL-23) and murine IL-23 (mIL-23) by monitoring the activation of the STAT3 pathway. Binding of IL-23 to its receptor on the surface of HEK-Blue™ IL-23 cells triggers a signaling cascade leading to the activation of STAT3 and the subsequent production of secreted embryonic alkaline phosphatase (SEAP). This can be readily assessed using QUANTI-Blue™ Solution, a SEAP detection reagent.
HEK-Blue™ IL-23 cells were cultured as described by INVIVOGEN.
On the first day of assay 10 μL of the HEK-BLUE IL23 cell suspension (final concentration: 10,000 cells/well) and 10 μl of serially diluted peptides solutions were dispensed into a 384-well assay plate. After pre-incubation of the reaction mixtures at 37° C./5% CO2/95% humidity for 60 minutes, 10 μl of the humanIL23 cytokine (final concentration: 0.25 ng/ml) was added to each well for the STAT3 signaling activation. The plate was incubated overnight at 37° C./5% CO2/95% humidity.
On the second day 20 μl per well of QUANTI-BLUE detection solution (prepared according to the manufacture instruction) was dispensed into a new 384-well plate and followed by the transfer of 5 μl supernatant of the overnight incubated cell/sample mixtures. After incubation of 45 min at room temperature signals were measured with PHERASTAR (BMG) at OD 620-655 nm.
Dose response data were fitted with XLfit.

[5] abbreviates: Buffer pH 1.1 (head; method: 50 mM HCl pH 1.2), 2 h agitation, read-out: Solubility, Buffer pH 1.1.
[6] abbreviates: aqueous buffer, 50 mM phosphate buffer pH 6.5, 2 h agitation, read-out: Solubility, Buffer pH 6.5.
Where [7] appears, read: aqueous buffer, 50 mM phosphate buffer pH 7.4, 2 h agitation, read-out: Solubility, Buffer pH 7.4.

Structures are written as SMILES. Where two headings read alike, the source gives them in different places. Numbered stars: 1 amine (or outer) side, 2 acyl side, 3 side chain; on linkers, the order of the positions; unused ones are H or OH. Bridge positions count the residues as written; N and C are the ends. Square brackets hold non-standard residues; d marks the D form. Peptide text beside a SMILES is read from it. * marks the point of attachment. Lys(Me,(CH2)4NMe(CH2)5CO) = CN(CCCCCC(=O)[*:3])CCCCN(C)CCCC[C@H](N[*:1])C(=O)[*:2]; Lys(Me,(CH2)4NMe(CH2)4CO) = CN(CCCCC(=O)[*:3])CCCCN(C)CCCC[C@H](N[*:1])C(=O)[*:2]; Trp(7-Me) = Cc1cccc2c(C[C@H](N)C(=O)O)c[nH]c12; Trp(1-Me) = Cn1cc(C[C@H](N)C(=O)O)c2ccccc21; αMeLys(Me2) = CN(C)CCCC[C@](C)(N)C(=O)O; 2Nal = N[C@@H](Cc1ccc2ccccc2c1)C(=O)O; 3Pal = N[C@@H](Cc1cccnc1)C(=O)O; Aun = NCCCCCCCCCCC(=O)O; Thp = NC1(C(=O)O)CCOCC1; Me2NCH2CH2 = CN(C)CC*; Aib = CC(C)(N)C(=O)O; Sar = CNCC(=O)O Some results are limits rather than exact numbers.

A word on the solubility: it is how much of the substance goes into solution per volume. As usually defined, the IC50 is the midpoint of a concentration-inhibition curve.

`CC(=O)NCCCC[C@@H]1NC(=O)[C@H](Cc2c[nH]c3c(C)cccc23)NC(=O)CCCCCCCCCCNC(=O)CC[C@@H](C(=O)N[C@@H](CC(N)=O)C(=O)N[C@@H](Cc2cccnc2)C(=O)N(C)CC(N)=O)NC(=O)[C@](C)(CCCCN(C)C)NC(=O)[C@H](Cc2ccc3ccccc3c2)NC(=O)[C@H](Cc2ccc(OCCN(C)C)cc2)NC(=O)C2(CCOCC2)NC1=O` [compound 21] ([Aun][Trp(7-Me)]K(Ac)[Thp]Y(Me2NCH2CH2)[2Nal][αMeLys(Me2)]EN[3Pal][Sar]-NH2; lactam N-8): the solubility at 2 h in series [1] (setting [5]) is not below 1150 µg/mL; in series [1] (setting [6]), not below 1170 µg/mL; in series [1] (setting [7]) it was not below 1010 µg/mL. For the same molecule, the amount remaining at 1 h, 1 µM in series [2] was 97%; in series [3], 91%. Further, in series [2], the share remaining at 2 h, 1 µM is 100%. In addition, the amount remaining at 4 h, 1 µM in series [2] was 101%. For the same molecule, in series [4], the IC50 was 0.27 nM.

On to `CC(=O)NCCCC[C@@H]1NC(=O)[C@H](Cc2c[nH]c3ccccc23)NC(=O)CCCCN(C)CCCCN(C)CCCC[C@@H](C(=O)N[C@@H](CO)C(=O)N[C@@H](Cc2cccnc2)C(=O)N(C)CC(N)=O)NC(=O)C(C)(C)NC(=O)[C@H](Cc2ccc3ccccc3c2)NC(=O)[C@H](Cc2ccc(OCCN(C)C)cc2)NC(=O)C2(CCOCC2)NC1=O` [compound 42] (WK(Ac)[Thp]Y(Me2NCH2CH2)[2Nal][Aib][Lys(Me,(CH2)4NMe(CH2)4CO)]S[3Pal][Sar]-NH2; lactam N-7), for which the solubility at 2 h is not below 1010 µg/mL in series [1] (setting [5]), not below 1030 µg/mL in series [1] (setting [6]) and not below 1040 µg/mL in series [1] (setting [7]). Further, the amount remaining at 1 h, 1 µM in series [2] is 59%; in series [3], 100%. Besides, the amount remaining at 2 h, 1 µM in series [2] is 42%. The share remaining at 4 h, 1 µM in series [2] was 23%. The IC50 in series [4] is 4.37 nM.

For `CC(=O)NCCCC[C@@H]1NC(=O)[C@H](Cc2c[nH]c3c(C)cccc23)NC(=O)CCCCN(C)CCCCN(C)CCCC[C@@H](C(=O)N[C@@H](CC(N)=O)C(=O)N[C@@H](Cc2cccnc2)C(=O)N(C)CC(N)=O)NC(=O)[C@](C)(CCCCN(C)C)NC(=O)[C@H](Cc2ccc3ccccc3c2)NC(=O)[C@H](Cc2ccc(OCCN(C)C)cc2)NC(=O)C2(CCOCC2)NC1=O` [compound 47] ([Trp(7-Me)]K(Ac)[Thp]Y(Me2NCH2CH2)[2Nal][αMeLys(Me2)][Lys(Me,(CH2)4NMe(CH2)4CO)]N[3Pal][Sar]-NH2; lactam N-7), the solubility at 2 h was not below 1200 µg/mL in series [1] (setting [5]), not below 1150 µg/mL in series [1] (setting [6]) and not below 1170 µg/mL in series [1] (setting [7]). In addition, the amount remaining at 1 h, 1 µM was 97% in series [2] and 98% in series [3]. Besides, the share remaining at 2 h, 1 µM in series [2] was 91%. In series [2], the fraction remaining at 4 h, 1 µM is 91%. Also, the half-inhibitory concentration (IC50) in series [4] came out at 1.2 nM.

Regarding `CN(C)CCOc1ccc(C[C@@H]2NC(=O)C3(CCOCC3)NC(=O)[C@H](CCC(N)=O)NC(=O)[C@H](Cc3cn(C)c4ccccc34)NC(=O)CCCCCN(C)CCCCN(C)CCCC[C@@H](C(=O)N[C@@H](CC(N)=O)C(=O)N[C@@H](Cc3cccnc3)C(=O)N(C)CC(N)=O)NC(=O)C(C)(C)NC(=O)[C@H](Cc3ccc4ccccc4c3)NC2=O)cc1` [compound 33] ([Trp(1-Me)]Q[Thp]Y(Me2NCH2CH2)[2Nal][Aib][Lys(Me,(CH2)4NMe(CH2)5CO)]N[3Pal][Sar]-NH2; lactam N-7), the solubility at 2 h in series [1] (setting [5]) was not below 1000 µg/mL; in series [1] (setting [6]), not below 1120 µg/mL; in series [1] (setting [7]), not below 950 µg/mL. Besides, the fraction remaining at 1 h, 1 µM is 97% in series [2] and 100% in series [3]. Besides, the share remaining at 2 h, 1 µM in series [2] is 94%. In addition, the share remaining at 4 h, 1 µM in series [2] was 94%. In series [4], the IC50 turned out to be 0.8 nM.

With `CC(=O)NCCCC[C@@H]1NC(=O)[C@H](Cc2c[nH]c3c(C)cccc23)NC(=O)CCCCCN(C)CCCCN(C)CCCC[C@@H](C(=O)NCC(=O)N[C@@H](Cc2cccnc2)C(=O)N(C)CC(N)=O)NC(=O)C(C)(C)NC(=O)[C@H](Cc2ccc3ccccc3c2)NC(=O)[C@H](Cc2ccc(OCCN(C)C)cc2)NC(=O)C2(CCOCC2)NC1=O` [compound 27] ([Trp(7-Me)]K(Ac)[Thp]Y(Me2NCH2CH2)[2Nal][Aib][Lys(Me,(CH2)4NMe(CH2)5CO)]G[3Pal][Sar]-NH2; lactam N-7), the values for the solubility at 2 h in series [1] (setting [5]), in series [1] (setting [6]) and in series [1] (setting [7]) were not below 980 µg/mL, not below 920 µg/mL and not below 960 µg/mL, respectively. The fraction remaining at 1 h, 1 µM in series [2] is 97%; in series [3], 100%. Moreover, the fraction remaining at 2 h, 1 µM in series [2] was 94%. The fraction remaining at 4 h, 1 µM in series [2] is 94%. Also, in series [4], the IC50 is 3.12 nM.

For the molecule `Cc1cccc2c(C[C@@H]3NC(=O)CCCCCN(C)CCCCN(C)CCCC[C@@H](C(=O)NCC(=O)N[C@@H](Cc4cccnc4)C(=O)N(C)CC(N)=O)NC(=O)C(C)(C)NC(=O)[C@H](Cc4ccc5ccccc5c4)NC(=O)[C@H](Cc4ccc(OCCN(C)C)cc4)NC(=O)C4(CCOCC4)NC(=O)[C@H](CCC(N)=O)NC3=O)c[nH]c12` [compound 26] ([Trp(7-Me)]Q[Thp]Y(Me2NCH2CH2)[2Nal][Aib][Lys(Me,(CH2)4NMe(CH2)5CO)]G[3Pal][Sar]-NH2; lactam N-7), the solubility at 2 h in series [1] (setting [5]) is not below 1000 µg/mL; in series [1] (setting [6]) it was not below 1010 µg/mL; in series [1] (setting [7]) it was not below 890 µg/mL. Also, the fraction remaining at 1 h, 1 µM in series [2] was 92%; in series [3] it was 95%. The amount remaining at 2 h, 1 µM in series [2] was 88%. Also, the share remaining at 4 h, 1 µM in series [2] was 87%. In series [4], the IC50 stood at 2.32 nM.
